Test results as given in US8603986B2, “Compounds and methods for modulating cadherin-mediated processes” (McGill University, priority 2005, dated 2013).
“Also recorded” adds a separate entry of the source. Marks after values point to notes of the source that are not given here.

Experiments:
[1] = target: T1, VE-cadherin/Fc chimeric protein (Homo sapiens, UniProt P33151); test: Cadherin specificity: phage ELISA on VE-cadherin/Fc; type: binding; set-up: key: +: Phage bound to the chimeric protein; −: No phage bound to the chimeric protein
T1 construct: purchased R&D Systems, Minneapolis, Minn
T1 sequence (P33151 with tags, fused parts or gaps limits assumed, species assumed): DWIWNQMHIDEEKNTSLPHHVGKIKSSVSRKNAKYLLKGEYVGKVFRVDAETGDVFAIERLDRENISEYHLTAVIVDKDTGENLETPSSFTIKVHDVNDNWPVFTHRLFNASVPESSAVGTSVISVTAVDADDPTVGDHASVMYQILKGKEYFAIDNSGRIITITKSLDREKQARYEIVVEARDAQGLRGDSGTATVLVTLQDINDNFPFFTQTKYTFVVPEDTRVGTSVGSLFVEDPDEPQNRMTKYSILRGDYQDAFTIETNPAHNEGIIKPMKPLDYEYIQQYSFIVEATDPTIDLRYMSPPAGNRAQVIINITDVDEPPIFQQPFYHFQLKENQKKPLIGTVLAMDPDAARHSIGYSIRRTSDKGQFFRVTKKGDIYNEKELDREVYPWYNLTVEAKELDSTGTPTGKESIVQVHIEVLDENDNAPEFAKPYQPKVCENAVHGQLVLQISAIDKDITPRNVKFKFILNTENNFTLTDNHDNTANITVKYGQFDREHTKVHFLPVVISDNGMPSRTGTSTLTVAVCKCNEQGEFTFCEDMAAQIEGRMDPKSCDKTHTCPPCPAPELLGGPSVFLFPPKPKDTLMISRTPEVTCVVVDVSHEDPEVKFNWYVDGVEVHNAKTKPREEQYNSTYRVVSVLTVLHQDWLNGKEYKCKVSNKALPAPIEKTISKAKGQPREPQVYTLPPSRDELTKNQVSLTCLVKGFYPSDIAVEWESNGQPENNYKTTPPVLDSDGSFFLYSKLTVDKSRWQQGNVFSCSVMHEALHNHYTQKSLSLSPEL
Protocol: (§1) The binding of each clone to the cadherin/Fc chimeric proteins was confirmed by ELISA. Wells of ProBind microtiter plates (Falcon) were coated with either N-cadherin/Fc or E-cadherin/Fc chimeric protein (100 ng/well) or human IgG1 (which contains the Fc fragment) (100 ng/well). After blocking the nonspecific sites with TBS containing 3% BSA and 1.2 mM CaCl2 for 1 h at 37° C., phage clones (10^9 pfu) diluted in TBST containing 3% BSA and 1.2 mM CaCl2 (100 μl/well). Non-coated wells were also used to exclude any phage that bound to the plastic surface. After 1 h incubation at room temperature, wells were washed 3 times with TBST containing 3% BSA and 1.2 mM CaCl2. M13 phage without any insert were used to control the non-specific binding of the phage itself to the target. Monoclonal anti-M13 antibody conjugated to horseradish peroxidase (Amersham Biosciences, Piscataway, N.J.) was diluted in TBST containing 3% BSA and 1.2 mM CaCl2 (1:2,000) and added to each well (100 μl/well). After 1 h incubation at room temperature, wells were washed three times with TBST containing 3% BSA and 1.2 mM CaCl2 and once with TBS containing 1.2 mM CaCl2. Horseradish peroxidase substrate, TMB (Sigma), was added to each well (100 μl/well and after color development the reaction was stopped by addition of 100 μl 0.5 M sulphuric acid to each well. The intensity of the color was measured at 450 nm.
(§2) The phage clones shown to bind to the N-cadherin/Fc chimeric protein by ELISA were also evaluated for their ability to bind to E-cadherin/Fc and VE-cadherin/Fc chimeric proteins. The phage clones shown to bind to the E-cadherin/Fc chimeric protein by ELISA were also evaluated for their ability to bind to N-cadherin/Fc and VE-cadherin/Fc chimeric proteins. The same ELISA protocol described in the previous section was used to perform this evaluation with the exception that the wells were coated with either 100 ng N-cadherin/Fc, E-cadherin/Fc or VE-cadherin/Fc chimeric protein (R&D Systems, Minneapolis, Minn.).

[2] = target: T2, N-cadherin/Fc chimeric protein (Homo sapiens, UniProt P19022); test: Cadherin/Fc binding assay: phage ELISA on N-cadherin/Fc; set-up: key to ELISA Phage Binding to N-Cadherin/Fc Chimeric Protein 1.2 mM calcium / ELISA Phage Binding to N-Cadherin/Fc Chimeric Protein 2 mM EDTA / ELISA Phage Binding to Cadherin/Fc Chimeric Proteins N−: +: Phage bound to the chimeric protein; −: No phage bound to the chimeric protein
T2 construct: extracellular domain of human N-cadherin (Asp160-Ala724); purchased R&D Systems, Minneapolis, Minn
T2 sequence (P19022 160-724): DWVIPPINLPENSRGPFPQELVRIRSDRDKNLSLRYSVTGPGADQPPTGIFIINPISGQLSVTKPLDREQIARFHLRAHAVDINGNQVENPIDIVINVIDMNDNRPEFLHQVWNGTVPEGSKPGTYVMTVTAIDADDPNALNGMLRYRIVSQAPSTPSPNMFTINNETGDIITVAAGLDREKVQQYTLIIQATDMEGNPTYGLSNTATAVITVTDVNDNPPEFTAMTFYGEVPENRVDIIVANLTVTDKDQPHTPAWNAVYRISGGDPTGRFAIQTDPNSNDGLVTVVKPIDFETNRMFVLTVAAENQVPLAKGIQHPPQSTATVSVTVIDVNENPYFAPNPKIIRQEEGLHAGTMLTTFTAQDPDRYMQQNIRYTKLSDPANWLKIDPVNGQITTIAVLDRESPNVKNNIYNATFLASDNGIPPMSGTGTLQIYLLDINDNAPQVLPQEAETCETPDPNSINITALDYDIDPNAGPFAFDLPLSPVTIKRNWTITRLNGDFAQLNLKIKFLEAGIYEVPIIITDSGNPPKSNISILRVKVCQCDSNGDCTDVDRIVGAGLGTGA
Source text: (§3) The peptide libraries, Ph.D.-C7C™ and Ph.D.-12™ (New England BioLabs) were used in this study. These libraries are composed of 2×10^9 randomized 7 amino acid sequences flanked by cysteine residues and linear 12 amino acid sequences, respectively. The amino acid sequences are incorporated into the minor coat protein, pIII, of M13 phage. The N-cadherin/Fc chimeric protein (R&D Systems, Minneapolis, Minn.) consists of the extracellular domain of human N-cadherin (Asp160-Ala724) and the Fc region of human IgG1. The E-cadherin/Fc chimeric protein (R&D Systems, Minneapolis, Minn.) consists of the extracellular domain of human E-cadherin (Asp155-Ile707) and the Fc region of human IgG1.
The binding of each clone to the cadherin/Fc chimeric proteins was confirmed by ELISA. Wells of ProBind microtiter plates (Falcon) were coated with either N-cadherin/Fc or E-cadherin/Fc chimeric protein (100 ng/well) or human IgG1 (which contains the Fc fragment) (100 ng/well). […] Non-coated wells were also used to exclude any phage that bound to the plastic surface. […] M13 phage without any insert were used to control the non-specific binding of the phage itself to the target. […] […] Horseradish peroxidase substrate, TMB (Sigma), was added to each well (100 μl/well and after color development the reaction was stopped by addition of 100 μl 0.5 M sulphuric acid to each well. The intensity of the color was measured at 450 nm.
as §2

[3] = target: T3, E-cadherin/Fc chimeric protein (Homo sapiens, UniProt P12830); test: Cadherin/Fc binding assay: phage ELISA on E-cadherin/Fc; set-up: key: +: Phage bound to the chimeric protein; −: No phage bound to the chimeric protein
T3 construct: extracellular domain of human E-cadherin (Asp155-Ile707); purchased R&D Systems, Minneapolis, Minn
T3 sequence (P12830 155-707): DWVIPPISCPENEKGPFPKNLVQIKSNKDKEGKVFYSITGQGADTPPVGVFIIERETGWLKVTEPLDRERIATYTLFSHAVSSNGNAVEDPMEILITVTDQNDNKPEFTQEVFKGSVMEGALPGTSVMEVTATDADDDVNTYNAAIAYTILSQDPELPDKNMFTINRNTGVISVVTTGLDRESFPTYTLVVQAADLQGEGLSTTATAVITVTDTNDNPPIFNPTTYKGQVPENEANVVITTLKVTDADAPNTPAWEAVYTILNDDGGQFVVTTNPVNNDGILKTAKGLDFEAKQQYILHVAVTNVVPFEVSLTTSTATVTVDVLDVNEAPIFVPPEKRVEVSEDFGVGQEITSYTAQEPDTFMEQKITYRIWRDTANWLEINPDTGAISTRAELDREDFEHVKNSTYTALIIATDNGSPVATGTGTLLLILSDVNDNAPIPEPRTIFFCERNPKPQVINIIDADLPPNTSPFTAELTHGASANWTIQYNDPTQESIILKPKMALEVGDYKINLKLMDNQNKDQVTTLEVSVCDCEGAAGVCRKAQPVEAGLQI
Source text: as §3, §1, §2

[4] = Table 7, Ph.D.-12 clones selected on E-cadherin/Fc
[5] = Table 4, Ph.D.-12 library clones
[6] = Table 6, Ph.D.-C7C clones selected on E-cadherin/Fc
[7] = Table 3, clones selected in the absence of calcium
[8] = Table 2, Ph.D.-C7C library clones

EWDFFWPPTQTP [Ec 12-19]
ELISA Phage Binding to Cadherin/Fc Chimeric Proteins VE− [1, 4]: −
ELISA Phage Binding to Cadherin/Fc Chimeric Proteins N− [2, 4]: +
ELISA Phage Binding to Cadherin/Fc Chimeric Proteins E− [3, 4]: +

EWQYHWPTLQSR [Ec 12-22]
ELISA Phage Binding to Cadherin/Fc Chimeric Proteins VE− [1, 4]: −
ELISA Phage Binding to Cadherin/Fc Chimeric Proteins N− [2, 4]: +
ELISA Phage Binding to Cadherin/Fc Chimeric Proteins E− [3, 4]: +

AWQVHYSYVASS [Nc 12-a7]
ELISA Phage Binding to Cadherin/Fc Chimeric Proteins VE− [1, 5]: −
ELISA Phage Binding to N-Cadherin/Fc Chimeric Protein 1.2 mM calcium [2, 5]: +
ELISA Phage Binding to N-Cadherin/Fc Chimeric Protein 2 mM EDTA [2, 5]: +
ELISA Phage Binding to Cadherin/Fc Chimeric Proteins E− [3, 5]: +

WTFNFCTAC [Ec a5]
ELISA Phage Binding to Cadherin/Fc Chimeric Proteins VE− [1, 6]: −
ELISA Phage Binding to Cadherin/Fc Chimeric Proteins N− [2, 6]: +
ELISA Phage Binding to Cadherin/Fc Chimeric Proteins E− [3, 6]: +

WQWCFKATC [Ec 21]
ELISA Phage Binding to Cadherin/Fc Chimeric Proteins VE− [1, 6]: −
ELISA Phage Binding to Cadherin/Fc Chimeric Proteins N− [2, 6]: +
ELISA Phage Binding to Cadherin/Fc Chimeric Proteins E− [3, 6]: +

QWQLHWPASKQA [Ec 12-11]
ELISA Phage Binding to Cadherin/Fc Chimeric Proteins VE− [1, 4]: −
ELISA Phage Binding to Cadherin/Fc Chimeric Proteins N− [2, 4]: +
ELISA Phage Binding to Cadherin/Fc Chimeric Proteins E− [3, 4]: +

WQVCVGAHC [NoCa11]
ELISA Phage Binding to Cadherin/Fc Chimeric Proteins VE− [1, 7]: −
phage binding to N-cadherin/Fc chimeric protein by ELISA [2]: good ELISA signal; also recorded: strong ELISA signal
ELISA Phage Binding to N-Cadherin/Fc Chimeric Protein 1.2 mM calcium [2, 7]: +
ELISA Phage Binding to N-Cadherin/Fc Chimeric Protein 2 mM EDTA [2, 7]: +
ELISA Phage Binding to Cadherin/Fc Chimeric Proteins E− [3, 7]: −

WEVRLTEKC [Nc a3]
ELISA Phage Binding to Cadherin/Fc Chimeric Proteins VE− [1, 8]: −
ELISA Phage Binding to N-Cadherin/Fc Chimeric Protein 1.2 mM calcium [2, 8]: +
ELISA Phage Binding to N-Cadherin/Fc Chimeric Protein 2 mM EDTA [2, 8]: −
ELISA Phage Binding to Cadherin/Fc Chimeric Proteins E− [3, 8]: −

WELVQCLTC [Ec 1]
ELISA Phage Binding to Cadherin/Fc Chimeric Proteins VE− [1, 6]: −
ELISA Phage Binding to Cadherin/Fc Chimeric Proteins N− [2, 6]: +
ELISA Phage Binding to Cadherin/Fc Chimeric Proteins E− [3, 6]: +

WLQPYFPSY [Nc a5]
ELISA Phage Binding to Cadherin/Fc Chimeric Proteins VE− [1, 8]: −
ELISA Phage Binding to N-Cadherin/Fc Chimeric Protein 1.2 mM calcium [2, 8]: +
ELISA Phage Binding to N-Cadherin/Fc Chimeric Protein 2 mM EDTA [2, 8]: −
ELISA Phage Binding to Cadherin/Fc Chimeric Proteins E− [3, 8]: −

KWELTYFANSFP [Nc 12-a3]
ELISA Phage Binding to Cadherin/Fc Chimeric Proteins VE− [1, 5]: −
ELISA Phage Binding to N-Cadherin/Fc Chimeric Protein 1.2 mM calcium [2, 5]: +
ELISA Phage Binding to N-Cadherin/Fc Chimeric Protein 2 mM EDTA [2, 5]: +
ELISA Phage Binding to Cadherin/Fc Chimeric Proteins E− [3, 5]: −

WLQPYFPSY [Nc 1]
ELISA Phage Binding to Cadherin/Fc Chimeric Proteins VE− [1, 8]: −
phage binding to N-cadherin/Fc chimeric protein by ELISA [2]: positive ELISA signal
ELISA Phage Binding to N-Cadherin/Fc Chimeric Protein 1.2 mM calcium [2, 8]: +*
ELISA Phage Binding to N-Cadherin/Fc Chimeric Protein 2 mM EDTA [2, 8]: −**
ELISA Phage Binding to Cadherin/Fc Chimeric Proteins E− [3, 8]: −
